Test results published in patent US20250312499A1, “KISSPEPTIN RECEPTOR (KISS1R) TARGETED THERAPEUTICS AND USES THEREOF” (priority 2024, published 2025).
pKi: −log10 of the molar value. Square brackets hold non-standard residues; d marks the D form. Peptide text beside a SMILES is read from it. * marks the point of attachment. Gly(N-(3-F-4-Me-benzyl)) = Cc1ccc(CNCC(=O)*)cc1F; Butanoyl(4-(4-I-phenyl)) = O=C(CCCc1ccc(I)cc1)*; Butanoyl(4-(4-MePh)) = Cc1ccc(CCCC(=O)*)cc1; Api(1-amidino) = N=C(N)N1CCC(N)(C(=O)O)CC1; d2Nal = N[C@H](Cc1ccc2ccccc2c1)C(=O)O; Cha = N[C@@H](CC1CCCCC1)C(=O)O; Lauroyl = CCCCCCCCCCCC(=O)*; Octanoyl = CCCCCCCC(=O)*; Api = NC1(C(=O)O)CCNCC1; PEG2 = NCCOCCOCCC(=O)O; azaGly = NNC(=O)O; Sar = CNCC(=O)O

The compounds below were run against human kisspeptin receptor (Homo sapiens (Human), UniProt Q969F8) (assay: Human KISS1R binding assay (membrane competition binding)). Settings: 90 min at room temperature; competition with 0.2 nM [125I]-metastin (45-54); Flp-In T-Rex 293 kisspeptin membranes; metal complexes nonradioactive Ga, In, Lu; read-out: hKiSSR Binding Ki (90 min).
Chain of human kisspeptin receptor (Q969F8 whole entry): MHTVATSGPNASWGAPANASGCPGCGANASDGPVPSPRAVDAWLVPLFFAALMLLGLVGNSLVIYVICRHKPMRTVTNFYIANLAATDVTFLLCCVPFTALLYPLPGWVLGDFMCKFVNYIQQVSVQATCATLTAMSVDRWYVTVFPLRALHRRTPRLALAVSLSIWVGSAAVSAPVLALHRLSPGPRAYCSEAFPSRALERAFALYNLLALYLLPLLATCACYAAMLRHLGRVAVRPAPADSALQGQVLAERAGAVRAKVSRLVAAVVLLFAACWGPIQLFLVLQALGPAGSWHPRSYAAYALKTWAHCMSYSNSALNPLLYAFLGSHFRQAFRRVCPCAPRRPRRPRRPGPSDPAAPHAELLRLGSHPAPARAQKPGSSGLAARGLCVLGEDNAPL
Outline: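 Radioligand competition: 0.2 nM [125I]-metastin (45-54) displaced by test ligand (usually 0–10,000 nM) over 90 min at room temperature, pH 7.4 buffer with 0.1% BSA. Receptor source is crude membrane (5–10 μg) from tetracycline-induced Flp-In T-Rex 293 cells. Bound label filtered and counted; Ki from non-linear regression.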

Row | SMILES | pKi
1 | CNCC(=O)N1CCC(NC(=O)[C@H](CC(C)C)NC(=O)NNC(=O)[C@H](Cc2ccccc2)NC(=O)[C@@H](NC(=O)[C@H](CC(N)=O)NC(=O)[C@@H](Cc2ccc3ccccc3c2)NC(=O)[C@@H](Cc2ccc(O)cc2)NC(=O)CCCc2ccc(I)cc2)[C@@H](C)O)(C(=O)N[C@@H](Cc2ccccc2)C(N)=O)CC1 [Compound 398] ({Butanoyl(4-(4-I-phenyl))}-[dY][d2Nal]NTF[azaGly]L[Api](Sar)F-NH2) | > 8.00
2 | CNCC(=O)N1CCC(NC(=O)[C@H](CC(C)C)NC(=O)NNC(=O)[C@H](Cc2ccccc2)NC(=O)[C@@H](NC(=O)[C@H](CC(N)=O)NC(=O)[C@@H](Cc2ccc3ccccc3c2)NC(=O)[C@@H](Cc2ccc(O)cc2)NC(=O)CCCc2ccc(I)cc2)[C@@H](C)O)(C(=O)N[C@@H](Cc2ccc(O)cc2)C(N)=O)CC1 [Compound 399] ({Butanoyl(4-(4-I-phenyl))}-[dY][d2Nal]NTF[azaGly]L[Api](Sar)Y-NH2) | > 8.00
3 | CCCCCCCCCCCC(=O)N[C@H](Cc1ccc(O)cc1)C(=O)N[C@H](Cc1ccc2ccccc2c1)C(=O)N[C@@H](CC(N)=O)C(=O)N[C@H](C(=O)N[C@@H](Cc1ccccc1)C(=O)NNC(=O)N[C@@H](CC(C)C)C(=O)NC1(C(=O)N[C@@H](Cc2c[nH]c3ccccc23)C(N)=O)CCN(C(=O)CNC)CC1)[C@@H](C)O [Compound 400] (Lauroyl-[dY][d2Nal]NTF[azaGly]L[Api](Sar)W-NH2) | > 8.00
4 | CCCCCCCCCCCC(=O)N[C@H](Cc1ccc(O)cc1)C(=O)N[C@H](Cc1ccc2ccccc2c1)C(=O)N[C@@H](CC(N)=O)C(=O)N[C@H](C(=O)N[C@@H](Cc1ccccc1)C(=O)NNC(=O)N[C@@H](CC(C)C)C(=O)NC1(C(=O)N[C@@H](Cc2ccc(O)cc2)C(N)=O)CCN(C(=O)CNC)CC1)[C@@H](C)O [Compound 401] (Lauroyl-[dY][d2Nal]NTF[azaGly]L[Api](Sar)Y-NH2) | > 8.00
5 | Cc1ccc(CCCC(=O)N[C@H](Cc2ccc(O)cc2)C(=O)N[C@H](Cc2c[nH]c3ccccc23)C(=O)N[C@@H](CC(N)=O)C(=O)N[C@H](C(=O)N[C@@H](Cc2ccccc2)C(=O)NNC(=O)N[C@@H](CC(C)C)C(=O)NC2(C(=O)N[C@@H](Cc3c[nH]c4ccccc34)C(N)=O)CCN(C(=O)CNCc3ccc(C)c(F)c3)CC2)[C@@H](C)O)cc1 [Compound 403] ({Butanoyl(4-(4-MePh))}-[dY][dW]NTF[azaGly]L[Api](Gly(N-(3-F-4-Me-benzyl)))W-NH2) | > 8.00
6 | Cc1ccc(CNCC(=O)N2CCC(NC(=O)[C@H](CC(C)C)NC(=O)NNC(=O)[C@H](CC3CCCCC3)NC(=O)[C@@H](NC(=O)[C@H](CC(N)=O)NC(=O)[C@@H](Cc3c[nH]c4ccccc34)NC(=O)[C@H](N)Cc3ccc(O)cc3)[C@@H](C)O)(C(=O)N[C@@H](Cc3c[nH]c4ccccc34)C(N)=O)CC2)cc1F [Compound 404] (H-[dY][dW]NT[Cha][azaGly]L[Api](Gly(N-(3-F-4-Me-benzyl)))W-NH2) | > 8.00
7 | CCCCCCCC(=O)N[C@H](Cc1ccc(O)cc1)C(=O)N[C@H](Cc1c[nH]c2ccccc12)C(=O)N[C@@H](CC(N)=O)C(=O)N[C@H](C(=O)N[C@@H](CC1CCCCC1)C(=O)NNC(=O)N[C@@H](CC(C)C)C(=O)NC1(C(=O)N[C@@H](Cc2c[nH]c3ccccc23)C(N)=O)CCN(C(=O)CNCc2ccc(C)c(F)c2)CC1)[C@@H](C)O [Compound 405] (Octanoyl-[dY][dW]NT[Cha][azaGly]L[Api](Gly(N-(3-F-4-Me-benzyl)))W-NH2) | > 8.00
8 | CC(C)C[C@H](NC(=O)NNC(=O)[C@H](Cc1ccccc1)NC(=O)[C@@H](NC(=O)[C@H](CC(N)=O)NC(=O)[C@@H](Cc1ccc2ccccc2c1)NC(=O)[C@@H](Cc1ccc(O)cc1)NC(=O)CCOCCOCCN)[C@@H](C)O)C(=O)NC1(C(=O)N[C@@H](Cc2c[nH]c3ccccc23)C(N)=O)CCN(C(=N)N)CC1 [Compound 410] (H-[PEG2][dY][d2Nal]NTF[azaGly]L[Api(1-amidino)]W-NH2) | > 8.00

Results, then the compound that gave them:

Row | pKi | SMILES
9 | > 8.00 | Cc1ccc(CNCC(=O)N2CCC(NC(=O)[C@H](CC(C)C)NC(=O)NNC(=O)[C@H](Cc3ccccc3)NC(=O)[C@@H](NC(=O)[C@H](CC(N)=O)NC(=O)[C@@H](Cc3c[nH]c4ccccc34)NC(=O)[C@H](N)Cc3ccc(O)cc3)[C@@H](C)O)(C(=O)N[C@@H](Cc3c[nH]c4ccccc34)C(N)=O)CC2)cc1F [Compound 402] (H-[dY][dW]NTF[azaGly]L[Api](Gly(N-(3-F-4-Me-benzyl)))W-NH2)
10 | > 8.00 | CNCC(=O)N1CCC(NC(=O)[C@H](CC(C)C)NC(=O)NNC(=O)[C@H](Cc2ccccc2)NC(=O)[C@@H](NC(=O)[C@H](CC(N)=O)NC(=O)[C@@H](Cc2ccc3ccccc3c2)NC(=O)[C@H](N)Cc2ccc(O)cc2)[C@@H](C)O)(C(=O)N[C@@H](Cc2ccccc2)C(N)=O)CC1 [Compound 406] (H-[dY][d2Nal]NTF[azaGly]L[Api](Sar)F-NH2)
11 | > 8.00 | CNCC(=O)N1CCC(NC(=O)[C@H](CC(C)C)NC(=O)NNC(=O)[C@H](Cc2ccccc2)NC(=O)[C@@H](NC(=O)[C@H](CC(N)=O)NC(=O)[C@@H](Cc2ccc3ccccc3c2)NC(=O)[C@H](N)Cc2ccc(O)cc2)[C@@H](C)O)(C(=O)N[C@@H](Cc2ccc(O)cc2)C(N)=O)CC1 [Compound 407] (H-[dY][d2Nal]NTF[azaGly]L[Api](Sar)Y-NH2)
12 | > 8.00 | CNCC(=O)N1CCC(NC(=O)[C@H](CC(C)C)NC(=O)NNC(=O)[C@H](Cc2ccccc2)NC(=O)[C@@H](NC(=O)[C@H](CC(N)=O)NC(=O)[C@@H](Cc2ccc3ccccc3c2)NC(=O)[C@H](N)Cc2ccc(O)cc2)[C@@H](C)O)(C(=O)N[C@@H](Cc2c[nH]c3ccccc23)C(N)=O)CC1 [Compound 408] (H-[dY][d2Nal]NTF[azaGly]L[Api](Sar)W-NH2)
13 | > 8.00 | CC(C)C[C@H](NC(=O)NNC(=O)[C@H](Cc1ccccc1)NC(=O)[C@@H](NC(=O)[C@H](CC(N)=O)NC(=O)[C@@H](Cc1ccc2ccccc2c1)NC(=O)[C@H](N)Cc1ccc(O)cc1)[C@@H](C)O)C(=O)NC1(C(=O)N[C@@H](Cc2ccccc2)C(N)=O)CCN(C(=N)N)CC1 [Compound 409] (H-[dY][d2Nal]NTF[azaGly]L[Api(1-amidino)]F-NH2)
14 | > 8.00 | CC(C)C[C@H](NC(=O)NNC(=O)[C@H](Cc1ccccc1)NC(=O)[C@@H](NC(=O)[C@H](CC(N)=O)NC(=O)[C@@H](Cc1ccc2ccccc2c1)NC(=O)[C@H](N)Cc1ccc(O)cc1)[C@@H](C)O)C(=O)NC1(C(=O)N[C@@H](Cc2c[nH]c3ccccc23)C(N)=O)CCN(C(=N)N)CC1 [Compound 411] (H-[dY][d2Nal]NTF[azaGly]L[Api(1-amidino)]W-NH2)
